Target: USP30 (Homo sapiens (Human), UniProt Q70CQ3)
Assay: USP30 biochemical IC50 assay
Settings: not given
Method: USP30 Biochemical IC50 Assay
Dilution plates were prepared at 21 times the final concentration (2100 μM for a final concentration of 100 μM) in 50% DMSO in a 96-well polypropylene V-bottom plate (Greiner #651201). A typical 8-point dilution series to be 100, 30, 10, 3, 1, 0.3, 0.1, 0.03 μM final. Reactions were performed in duplicate in black 384 well plates (small volume, Greiner 784076) in a final reaction volume of 21 μl. Either 1 μl of 50% DMSO or diluted compound was added to the plate. USP30 was diluted in reaction buffer (40 mM Tris, pH 7.5, 0.005% Tween 20, 0.5 mg/ml BSA, 5 mM beta-mercaptoethanol) to the equivalent of 0.05 μl/well and 10 μl of diluted USP30 was added to the compound. Enzyme and compound were incubated for 30 min at room temp. Reactions were initiated by the addition of 50 nM of TAMRA labelled peptide linked to ubiquitin via an iso-peptide bond as fluorescence polarisation substrate. Reactions were read immediately after addition of substrate and following a 2 hr incubation at room temperature. Readings were performed on a Pherastar Plus (BMG Labtech). λ Excitation 540 nm; λ Emission 590 nm.

USP30, sequence (Q70CQ3 57-517): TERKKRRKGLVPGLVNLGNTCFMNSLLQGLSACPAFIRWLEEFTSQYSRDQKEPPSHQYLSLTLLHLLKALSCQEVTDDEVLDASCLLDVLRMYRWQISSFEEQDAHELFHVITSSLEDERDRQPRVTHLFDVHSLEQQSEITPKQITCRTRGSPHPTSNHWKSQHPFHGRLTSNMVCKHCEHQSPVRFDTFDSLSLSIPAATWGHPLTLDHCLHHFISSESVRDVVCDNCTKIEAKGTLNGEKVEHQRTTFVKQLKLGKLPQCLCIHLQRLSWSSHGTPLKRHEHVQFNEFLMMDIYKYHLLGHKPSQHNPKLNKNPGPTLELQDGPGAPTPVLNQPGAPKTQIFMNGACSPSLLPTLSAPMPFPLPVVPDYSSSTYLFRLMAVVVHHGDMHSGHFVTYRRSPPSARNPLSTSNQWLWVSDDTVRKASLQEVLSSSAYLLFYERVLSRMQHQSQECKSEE

Row | Structure (SMILES) | IC50
1 | N#CN1CCC(CNC(=O)c2nn(Cc3ccccc3)c3ccccc23)C1 (stereo not drawn) [Example 29, 1-Benzyl-N-((1-cyanopyrrolidin-3-yl)methyl)-1H-indazole-3-carboxamide] | 1000 to 10000 nM
2 | N#CN1CCC(CNC(=O)c2nn(Cc3ccc(Cl)cc3Cl)c3ccccc23)C1 (stereo not drawn) [Example 28, N-((1-Cyanopyrrolidin-3-yl)methyl)-1-(2,4-dichlorobenzyl)-1H-indazole-3-carboxamide] | < 100 nM

Same assay, conditions: fluorescence polarisation, TAMRA labelled peptide linked to ubiquitin; 30 min pre-incubation, 2 hr read; read-out: IC50 range

Row | Structure (SMILES) | IC50
3 | N#CN1CCC(CNC(=O)Nc2ccc(C(F)(F)F)cc2)C1 (stereo not drawn) [Example 45, 1-((1-Cyanopyrrolidin-3-yl)methyl)-3-(4-(trifluoromethyl)phenyl)urea] | 100 to 1000 nM
4 | N#CN1CC[C@H](CNC(=O)c2cn(-c3ccccc3)cn2)C1 [Example 70, (R)—N-((1-Cyanopyrrolidin-3-yl)methyl)-1-phenyl-1H-imidazole-4-carboxamide] | 1000 to 10000 nM
5 | N#CN1CC[C@H](CNc2ncc3ccc(-c4cn[nH]c4)cc3n2)C1 [Example 12, (R)-3-(((7-(1H-Pyrazol-4-yl)quinazolin-2-yl)amino)methyl)pyrrolidine-1-carbonitrile] | 1000 to 10000 nM
6 | N#CN1CC[C@H](CNC(=O)c2nc3ccccc3[nH]2)C1 [Example 56] | 1000 to 10000 nM
7 | N#CN1CCC(CNC(=O)Nc2ccc(Cl)cc2Cl)C1 (stereo not drawn) [Example 44, 1-((1-Cyanopyrrolidin-3-yl)methyl)-3-(2,4-dichlorophenyl)urea] | 100 to 1000 nM
8 | COc1cccc(-n2cnc(C(=O)NC[C@H]3CCN(C#N)C3)c2)c1 [Example 74, (R)—N-((1-Cyanopyrrolidin-3-yl)methyl)-1-(3-methoxyphenyl)-1H-imidazole-4-carboxamide] | 100 to 1000 nM
9 | N#CN1CCC(CNc2ncccc2-c2ccccc2)C1 (stereo not drawn) [Example 4, 3-(((3-Phenylpyridin-2-yl)amino)methyl)pyrrolidine-1-carbonitrile] | 10000 to 100000 nM
10 | N#CN1CC[C@H](CNC(=O)c2cn3ccc(Cl)cc3n2)C1 [Example 65, (R)-7-Chloro-N-((1-cyano-pyrrolidin-3-yl)methyl) imidazo[1,2-a] pyridine-2-carboxamide] | 1000 to 10000 nM
11 | N#Cc1cccc(-c2nnc(C(=O)NC[C@@H]3CCN(C#N)C3)o2)c1 [Example 69, (S)-5-(3-Cyanophenyl)-N-((1-cyanopyrrolidin-3-yl)methyl)-1,3,4-oxadiazole-2-carboxamide] | < 100 nM
12 | N#CN1CC[C@H](CNC(=O)c2cn3cc(Cl)ccc3n2)C1 [Example 35, (R)-6-Chloro-N-((1-cyanopyrrolidin-3-yl)methyl)imidazo[1,2-a]pyridine-2-carboxamide] | 1000 to 10000 nM
13 | N#CN1CC[C@H](CNC(=O)c2cn(CC3CC3)cn2)C1 [Example 79, (R)—N-((1-Cyanopyrrolidin-3-yl)methyl)-1-(cyclopropylmethyl)-1H-imidazole-4-carboxamide] | 1000 to 10000 nM
14 | N#CN1CCC(CNC(=O)c2cncc(-c3ccc(F)cc3)c2)C1 (stereo not drawn) [Example 33, N-((1-Cyanopyrrolidin-3-yl)methyl)-5-(4-fluorophenyl)nicotinamide] | 100 to 1000 nM
15 | CC(Nc1cc2ccccc2cn1)C1CCN(C#N)C1 (stereo not drawn) [Example 50, 3-(1-(Isoquinolin-3-ylamino)ethyl)pyrrolidine-1-carbonitrile] | 1000 to 10000 nM
16 | N#CN1CC[C@H](CNC(=O)c2cc3ccccn3n2)C1 [Example 36, (R)—N-((1-Cyanopyrrolidin-3-yl)methyl)pyrazolo[1,5-a]pyridine-2-carboxamide] | 1000 to 10000 nM
17 | Cc1nn(C)cc1-c1ccc(NCC2CCN(C#N)C2)c(F)c1 (stereo not drawn) [Example 15, 3-(((4-(1,3-Dimethyl-1H-pyrazol-4-yl)-2-fluorophenyl)amino)methyl)pyrrolidine-1-carbonitrile] | 1000 to 10000 nM
18 | N#Cc1cccc(-c2nnc(C(=O)NC[C@H]3CCN(C#N)C3)o2)c1 [Example 68, (R)-5-(3-Cyanophenyl)-N-((1-cyanopyrrolidin-3-yl)methyl)-1,3,4-oxadiazole-2-carboxamide] | < 100 nM
19 | N#CN1CCC(CNc2ccnc(N3Cc4ccccc4C3)c2)C1 (stereo not drawn) [Example 18, 3-(((2-(isoindolin-2-yl)pyridin-4-yl)amino)methyl)pyrrolidine-1-carbonitrile] | 100 to 1000 nM
20 | N#CN1CC[C@@H](CNc2nccc(-c3ccccc3)n2)C1 [Example 19, (S)-3-(((4-Phenylpyrimidin-2-yl)amino)methyl)pyrrolidine-1-carbonitrile] | 1000 to 10000 nM
21 | COc1ccccc1-n1cnc(C(=O)NC[C@H]2CCN(C#N)C2)c1 [Example 73, (R)—N-((1-Cyanopyrrolidin-3-yl)methyl)-1-(2-methoxyphenyl)-1H-imidazole-4-carboxamide] | 100 to 1000 nM
22 | N#CN1CCC(CNC(=O)Nc2cccc(Cl)c2)C1 (stereo not drawn) [Example 41, 1-(3-Chlorophenyl)-3-((1-cyanopyrrolidin-3-yl)methyl)urea] | 100 to 1000 nM
23 | Cc1ccc(F)c(NC(=O)NCC2CCN(C#N)C2)c1 (stereo not drawn) [Example 42, 1-((1-Cyanopyrrolidin-3-yl)methyl)-3-(2-fluoro-5-methylphenyl)urea] | 100 to 1000 nM
24 | Cc1ccccc1-c1cc(C(=O)NCC2CCN(C#N)C2)[nH]n1 (stereo not drawn) [Example 25, N-((1-Cyanopyrrolidin-3-yl)methyl)-3-(o-tolyl)-1H-pyrazole-5-carboxamide] | 100 to 1000 nM
25 | N#CN1CCC(CNC(=O)c2cc(N3CCCC3)ccn2)C1 (stereo not drawn) [Example 27, N-((1-Cyanopyrrolidin-3-yl)methyl)-4-(pyrrolidin-1-yl)picolinamide] | 100 to 1000 nM
26 | N#CN1CC[C@H](CNC(=O)c2cc3ccccc3cn2)C1 [Example 57] | 1000 to 10000 nM
27 | CN(CC1CCN(C#N)C1)C(=O)Cc1ccc(-c2ccccc2)cc1 (stereo not drawn) [Example 37, 2-([1,1′-biphenyl]-4-yl)-N-((1-cyanopyrrolidin-3-yl)methyl)-N-methylacetamide] | 100 to 1000 nM
28 | Cc1nc(-c2cccc(S(=O)(=O)N(C)CC3CCN(C#N)C3)c2)cs1 (stereo not drawn) [Example 46, N-((1-Cyanopyrrolidin-3-yl)methyl)-N-methyl-3-(2-methylthiazol-4-yl)-benzenesulfonamide] | 100 to 1000 nM
29 | Cc1nn(C)cc1-c1ccc(NCC2CCN(C#N)C2)cc1 (stereo not drawn) [Example 14, 3-(((4-(1,3-Dimethyl-1H-pyrazol-4-yl)phenyl)amino)methyl) pyrrolidine-1-carbonitrile] | 1000 to 10000 nM
30 | N#CN1CC[C@H](CNC(=O)c2cn(Cc3ccccc3)cn2)C1 [Example 78, (R)-1-Benzyl-N-((1-cyanopyrrolidin-3-yl)methyl)-1H-imidazole-4-carboxamide] | 100 to 1000 nM
